Measurements as given in article PMC11882969 (Nature Communications, 2025).
Several values for one entry are separate records, joined by “and”; a condition that tells them apart may be missing. Equal values may be shown once.

How the values were obtained:
Assay type in all cases: cell-based
[1] = molecular target: panel of 320 non-olfactory GPCRs (Homo sapiens, UniProt P43657)
[2] = molecular target: panel of 320 non-olfactory GPCRs (Homo sapiens, UniProt Q13304)
[3] = molecular target: panel of 320 non-olfactory GPCRs (Homo sapiens, UniProt O95838)
[4] = molecular target: panel of 320 non-olfactory GPCRs (Homo sapiens, UniProt P35414)
[5] = molecular target: panel of 320 non-olfactory GPCRs (Homo sapiens, UniProt P21730)
[6] = molecular target: panel of 320 non-olfactory GPCRs (Homo sapiens, UniProt Q86VZ1)
[7] = molecular target: panel of 320 non-olfactory GPCRs (Homo sapiens, UniProt P48145)
[8] = molecular target: panel of 320 non-olfactory GPCRs (Homo sapiens, UniProt P51677)
[9] = molecular target: panel of 320 non-olfactory GPCRs (Homo sapiens, UniProt Q13258)
[10] = molecular target: panel of 320 non-olfactory GPCRs (Homo sapiens, UniProt Q99527)
[11] = molecular target: panel of 320 non-olfactory GPCRs (Homo sapiens, UniProt P46093)
[12] = molecular target: panel of 320 non-olfactory GPCRs (Homo sapiens, UniProt O43194)
[13] = molecular target: panel of 320 non-olfactory GPCRs (Homo sapiens, UniProt P41143)
[14] = molecular target: panel of 320 non-olfactory GPCRs (Homo sapiens, UniProt Q86SQ6)
[15] = molecular target: panel of 320 non-olfactory GPCRs (Homo sapiens, UniProt P0DMS8)
[16] = molecular target: panel of 320 non-olfactory GPCRs (Homo sapiens, UniProt Q01718)
[17] = molecular target: panel of 320 non-olfactory GPCRs (Homo sapiens, UniProt Q9NS66)
[18] = molecular target: panel of 320 non-olfactory GPCRs (Homo sapiens, UniProt P25116)
[19] = molecular target: panel of 320 non-olfactory GPCRs (Homo sapiens, UniProt O95136)
[20] = molecular target: panel of 320 non-olfactory GPCRs (Homo sapiens, UniProt P08172)
[21] = molecular target: panel of 320 non-olfactory GPCRs (Homo sapiens, UniProt P32249)
[22] = molecular target: panel of 320 non-olfactory GPCRs (Homo sapiens, UniProt Q9Y2T6)
[23] = molecular target: panel of 320 non-olfactory GPCRs (Homo sapiens, UniProt P55085)
[24] = molecular target: panel of 320 non-olfactory GPCRs (Homo sapiens, UniProt P35367)
[25] = molecular target: panel of 320 non-olfactory GPCRs (Homo sapiens, UniProt P30411)
[26] = molecular target: panel of 320 non-olfactory GPCRs (Homo sapiens, UniProt P30556)
[27] = molecular target: panel of 320 non-olfactory GPCRs (Homo sapiens, UniProt Q9NZD1)
[28] = molecular target: panel of 320 non-olfactory GPCRs (Homo sapiens, UniProt P30518)
[29] = molecular target: panel of 320 non-olfactory GPCRs (Homo sapiens, UniProt Q15761)
[30] = molecular target: panel of 320 non-olfactory GPCRs (Homo sapiens, UniProt Q99680)
[31] = molecular target: panel of 320 non-olfactory GPCRs (Homo sapiens, UniProt Q9Y5Y4)
[32] = molecular target: panel of 320 non-olfactory GPCRs (Homo sapiens, UniProt O00254)
[33] = molecular target: panel of 320 non-olfactory GPCRs (Homo sapiens, UniProt P30874)
[34] = molecular target: panel of 320 non-olfactory GPCRs (Homo sapiens, UniProt P35368)
[35] = molecular target: panel of 320 non-olfactory GPCRs (Homo sapiens, UniProt P16473)
[36] = molecular target: panel of 320 non-olfactory GPCRs (Homo sapiens, UniProt Q9GZN0)
[37] = molecular target: panel of 320 non-olfactory GPCRs (Homo sapiens, UniProt P47901)
Further: test concentration or dose not given here.

Sequence of panel of 320 non-olfactory GPCRs (Homo sapiens, UniProt P25116) (P25116 22-425): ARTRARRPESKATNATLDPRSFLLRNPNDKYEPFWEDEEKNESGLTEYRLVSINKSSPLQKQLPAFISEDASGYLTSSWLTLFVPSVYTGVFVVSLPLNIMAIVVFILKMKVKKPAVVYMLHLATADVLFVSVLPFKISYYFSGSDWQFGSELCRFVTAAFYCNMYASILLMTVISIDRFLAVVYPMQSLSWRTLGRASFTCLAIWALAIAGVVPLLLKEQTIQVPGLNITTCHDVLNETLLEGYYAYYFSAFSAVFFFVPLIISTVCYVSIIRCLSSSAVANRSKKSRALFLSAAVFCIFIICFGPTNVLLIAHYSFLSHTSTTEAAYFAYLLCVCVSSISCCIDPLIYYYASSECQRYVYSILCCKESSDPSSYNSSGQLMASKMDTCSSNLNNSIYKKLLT
Sequence of panel of 320 non-olfactory GPCRs (Homo sapiens, UniProt P47901) (P47901 whole entry): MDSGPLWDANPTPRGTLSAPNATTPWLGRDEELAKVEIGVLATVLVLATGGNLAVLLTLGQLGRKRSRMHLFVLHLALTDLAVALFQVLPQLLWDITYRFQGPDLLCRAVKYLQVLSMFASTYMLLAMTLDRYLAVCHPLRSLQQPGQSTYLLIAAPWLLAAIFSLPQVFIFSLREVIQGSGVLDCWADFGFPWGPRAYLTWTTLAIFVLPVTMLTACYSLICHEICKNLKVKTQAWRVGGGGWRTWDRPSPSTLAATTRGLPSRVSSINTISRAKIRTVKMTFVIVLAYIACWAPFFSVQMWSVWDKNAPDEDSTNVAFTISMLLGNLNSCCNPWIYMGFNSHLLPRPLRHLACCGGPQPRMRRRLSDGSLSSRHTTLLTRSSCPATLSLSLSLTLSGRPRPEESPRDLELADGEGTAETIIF
Sequence of panel of 320 non-olfactory GPCRs (Homo sapiens, UniProt P32249) (P32249 whole entry): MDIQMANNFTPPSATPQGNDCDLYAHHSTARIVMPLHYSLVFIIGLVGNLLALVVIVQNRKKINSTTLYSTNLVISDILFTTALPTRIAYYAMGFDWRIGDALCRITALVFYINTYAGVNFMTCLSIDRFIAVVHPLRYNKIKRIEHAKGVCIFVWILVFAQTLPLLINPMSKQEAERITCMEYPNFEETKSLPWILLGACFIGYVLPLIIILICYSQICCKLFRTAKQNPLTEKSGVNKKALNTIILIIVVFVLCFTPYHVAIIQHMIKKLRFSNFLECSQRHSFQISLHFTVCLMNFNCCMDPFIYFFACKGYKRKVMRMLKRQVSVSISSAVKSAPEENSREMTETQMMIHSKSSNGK
Sequence of panel of 320 non-olfactory GPCRs (Homo sapiens, UniProt P55085) (P55085 26-397): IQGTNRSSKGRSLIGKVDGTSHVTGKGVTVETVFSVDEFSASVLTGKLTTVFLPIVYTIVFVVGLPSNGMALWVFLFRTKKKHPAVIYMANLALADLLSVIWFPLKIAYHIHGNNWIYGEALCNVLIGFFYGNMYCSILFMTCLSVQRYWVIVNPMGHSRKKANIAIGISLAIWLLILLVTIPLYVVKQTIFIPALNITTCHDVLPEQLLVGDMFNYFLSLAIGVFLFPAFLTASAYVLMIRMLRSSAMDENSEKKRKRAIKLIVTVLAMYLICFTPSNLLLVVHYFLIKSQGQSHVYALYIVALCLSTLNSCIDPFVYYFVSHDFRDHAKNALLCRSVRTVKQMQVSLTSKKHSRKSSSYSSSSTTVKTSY
Sequence of panel of 320 non-olfactory GPCRs (Homo sapiens, UniProt Q9Y2T6) (Q9Y2T6 whole entry): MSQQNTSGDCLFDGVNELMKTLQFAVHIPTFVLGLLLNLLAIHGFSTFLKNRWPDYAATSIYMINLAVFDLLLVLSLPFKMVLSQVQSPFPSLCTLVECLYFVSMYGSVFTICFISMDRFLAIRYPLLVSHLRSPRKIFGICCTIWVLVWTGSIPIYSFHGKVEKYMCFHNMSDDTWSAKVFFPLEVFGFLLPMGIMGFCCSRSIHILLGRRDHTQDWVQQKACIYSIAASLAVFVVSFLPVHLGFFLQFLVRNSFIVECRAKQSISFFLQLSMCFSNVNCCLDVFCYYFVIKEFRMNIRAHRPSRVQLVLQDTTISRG
Sequence of panel of 320 non-olfactory GPCRs (Homo sapiens, UniProt P30874) (P30874 whole entry): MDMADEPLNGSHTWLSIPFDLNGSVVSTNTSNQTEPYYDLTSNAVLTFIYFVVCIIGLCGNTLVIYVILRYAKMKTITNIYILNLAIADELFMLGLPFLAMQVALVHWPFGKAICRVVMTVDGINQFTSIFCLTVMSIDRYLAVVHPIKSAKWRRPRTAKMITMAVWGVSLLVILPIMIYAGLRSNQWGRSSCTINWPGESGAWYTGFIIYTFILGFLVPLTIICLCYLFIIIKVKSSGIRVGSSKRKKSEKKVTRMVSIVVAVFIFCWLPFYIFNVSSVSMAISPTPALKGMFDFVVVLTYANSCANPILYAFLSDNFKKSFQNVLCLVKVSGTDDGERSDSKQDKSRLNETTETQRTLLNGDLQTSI
Sequence of panel of 320 non-olfactory GPCRs (Homo sapiens, UniProt P30518) (P30518 whole entry): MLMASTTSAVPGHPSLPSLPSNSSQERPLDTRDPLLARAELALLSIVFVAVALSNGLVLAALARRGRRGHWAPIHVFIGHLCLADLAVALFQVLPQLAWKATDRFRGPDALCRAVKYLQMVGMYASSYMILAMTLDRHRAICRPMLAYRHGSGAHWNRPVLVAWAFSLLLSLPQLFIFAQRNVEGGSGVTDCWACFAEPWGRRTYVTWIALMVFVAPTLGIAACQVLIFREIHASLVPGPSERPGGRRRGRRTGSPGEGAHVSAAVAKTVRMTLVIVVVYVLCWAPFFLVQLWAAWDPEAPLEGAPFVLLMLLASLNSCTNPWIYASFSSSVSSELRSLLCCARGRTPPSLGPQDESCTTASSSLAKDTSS
Sequence of panel of 320 non-olfactory GPCRs (Homo sapiens, UniProt P41143) (P41143 whole entry): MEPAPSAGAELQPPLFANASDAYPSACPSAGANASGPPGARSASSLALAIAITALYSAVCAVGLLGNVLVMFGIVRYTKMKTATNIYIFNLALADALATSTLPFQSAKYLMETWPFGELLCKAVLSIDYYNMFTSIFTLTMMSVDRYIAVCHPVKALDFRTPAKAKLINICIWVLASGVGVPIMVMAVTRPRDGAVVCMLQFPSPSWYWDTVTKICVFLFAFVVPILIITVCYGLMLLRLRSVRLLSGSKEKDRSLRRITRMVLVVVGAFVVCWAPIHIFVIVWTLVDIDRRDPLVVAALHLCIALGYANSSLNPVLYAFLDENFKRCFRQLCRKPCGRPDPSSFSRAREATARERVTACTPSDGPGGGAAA
Sequence of panel of 320 non-olfactory GPCRs (Homo sapiens, UniProt Q15761) (Q15761 whole entry): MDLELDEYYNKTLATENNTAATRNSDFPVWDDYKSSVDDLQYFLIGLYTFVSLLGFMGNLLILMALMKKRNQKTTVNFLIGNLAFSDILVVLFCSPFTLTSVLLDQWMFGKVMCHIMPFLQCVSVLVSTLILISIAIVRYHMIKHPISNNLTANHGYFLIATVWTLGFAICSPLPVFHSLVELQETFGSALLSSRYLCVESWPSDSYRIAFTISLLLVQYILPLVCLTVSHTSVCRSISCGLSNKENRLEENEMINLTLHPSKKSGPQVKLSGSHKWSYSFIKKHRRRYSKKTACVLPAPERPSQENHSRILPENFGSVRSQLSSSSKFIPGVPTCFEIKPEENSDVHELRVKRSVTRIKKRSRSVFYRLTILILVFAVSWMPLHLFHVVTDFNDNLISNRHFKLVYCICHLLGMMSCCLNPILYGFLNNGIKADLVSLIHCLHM
Sequence of panel of 320 non-olfactory GPCRs (Homo sapiens, UniProt Q13304) (Q13304 whole entry): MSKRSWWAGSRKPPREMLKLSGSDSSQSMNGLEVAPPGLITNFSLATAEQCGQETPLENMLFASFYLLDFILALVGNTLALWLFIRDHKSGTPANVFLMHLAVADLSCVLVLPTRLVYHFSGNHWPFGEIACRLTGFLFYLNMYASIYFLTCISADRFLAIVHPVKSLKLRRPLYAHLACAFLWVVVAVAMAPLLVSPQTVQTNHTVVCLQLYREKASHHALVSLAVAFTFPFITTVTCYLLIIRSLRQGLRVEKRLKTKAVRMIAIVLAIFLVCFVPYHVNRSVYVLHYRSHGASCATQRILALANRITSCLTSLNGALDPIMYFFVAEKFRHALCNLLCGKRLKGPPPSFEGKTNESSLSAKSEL
Sequence of panel of 320 non-olfactory GPCRs (Homo sapiens, UniProt O95838) (O95838 whole entry): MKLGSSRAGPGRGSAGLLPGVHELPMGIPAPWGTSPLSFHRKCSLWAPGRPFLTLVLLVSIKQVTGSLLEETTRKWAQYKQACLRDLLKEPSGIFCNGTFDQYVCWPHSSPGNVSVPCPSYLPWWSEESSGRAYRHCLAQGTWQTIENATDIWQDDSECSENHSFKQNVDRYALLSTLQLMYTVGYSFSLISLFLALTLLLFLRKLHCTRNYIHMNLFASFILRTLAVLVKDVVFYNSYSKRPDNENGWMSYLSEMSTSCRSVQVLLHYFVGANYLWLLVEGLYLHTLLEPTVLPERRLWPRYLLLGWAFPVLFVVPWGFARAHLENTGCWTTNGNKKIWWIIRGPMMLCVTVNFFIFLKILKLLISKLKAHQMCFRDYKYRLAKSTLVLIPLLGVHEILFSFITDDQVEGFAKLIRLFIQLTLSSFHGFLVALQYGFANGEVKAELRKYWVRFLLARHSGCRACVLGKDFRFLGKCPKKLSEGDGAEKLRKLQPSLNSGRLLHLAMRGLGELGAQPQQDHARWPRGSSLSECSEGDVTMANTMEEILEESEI
Sequence of panel of 320 non-olfactory GPCRs (Homo sapiens, UniProt O00254) (O00254 22-374): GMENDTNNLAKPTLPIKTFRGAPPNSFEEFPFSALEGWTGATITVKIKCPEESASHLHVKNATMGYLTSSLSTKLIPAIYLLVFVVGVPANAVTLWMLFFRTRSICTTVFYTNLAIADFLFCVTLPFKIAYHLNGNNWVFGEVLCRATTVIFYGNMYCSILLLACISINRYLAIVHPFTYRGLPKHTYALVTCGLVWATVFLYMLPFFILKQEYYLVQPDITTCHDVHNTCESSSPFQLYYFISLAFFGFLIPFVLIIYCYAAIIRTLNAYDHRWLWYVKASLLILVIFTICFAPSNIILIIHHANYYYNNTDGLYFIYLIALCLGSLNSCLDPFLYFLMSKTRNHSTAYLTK

COC(=O)[C@@](C)(NC(=O)c1cc(C)n(-c2cccc(C(F)(F)F)c2)n1)c1cccs1 [‘1350]
Fold of Basal RLU [1]: 0.9 fold and 1 fold and 1.1 fold and 0.7 fold
Fold of Basal RLU [2]: 1 fold and 1.2 fold and 0.8 fold and 1.1 fold
Fold of Basal RLU [3]: 1.1 fold and 1.5 fold and 1 fold and 0.8 fold
Fold of Basal RLU [4]: 0.9 fold and 1.1 fold and 1.2 fold and 1 fold
Fold of Basal RLU [5]: 1.1 fold and 0.9 fold and 1.2 fold and 1 fold
Fold of Basal RLU [6]: 0.6 fold and 1.1 fold and 0.8 fold and 0.7 fold
Fold of Basal RLU [7]: 1.2 and 1.8 and 1.3 and 1.4
Fold of Basal RLU [8]: 0.9 fold and 1 fold and 1.2 fold
Fold of Basal RLU [9]: 0.9 and 0.6 and 0.8
Fold of Basal RLU [10]: 1.2 and 1.1 and 0.9
Fold of Basal RLU [11]: 1.1 fold and 0.9 fold and 1 fold
Fold of Basal RLU [12]: 0.7 and 0.8 and 1
Fold of Basal RLU [13]: 1 fold and 0.9 fold and 0.8 fold
Fold of Basal RLU [14]: 0.9 fold and 1.1 fold and 1.3 fold
Fold of Basal RLU [15]: 1 fold and 0.9 fold and 1.2 fold
Fold of Basal RLU [16]: 1 and 1.3 and 0.7
Fold of Basal RLU [17]: 1.6 and 1.3 and 1.7
Fold of Basal RLU [18]: 1 fold and 1.1 fold and 1.3 fold
Fold of Basal RLU [19]: 1.3 fold and 0.9 fold and 1.2 fold and 1 fold
Fold of Basal RLU [20]: 0.9 fold and 0.6 fold and 0.8 fold
Fold of Basal RLU [21]: 0.8 and 0.9 and 1
Fold of Basal RLU [22]: 1.4 fold and 1.3 fold and 1.5 fold
Fold of Basal RLU [23]: 0.8 and 1.2
Fold of Basal RLU [24]: 0.9 fold and 1 fold and 1.1 fold
Fold of Basal RLU [25]: 0.9 fold and 1 fold and 0.8 fold
Fold of Basal RLU [26]: 1.1 and 1.3 and 1.2
Fold of Basal RLU [27]: 1.1 and 1 and 0.6 and 0.8
Fold of Basal RLU [28]: 1.1 fold and 0.9 fold and 1.2 fold and 1.3 fold
Fold of Basal RLU [29]: 1.2 fold and 1 fold
Fold of Basal RLU [30]: 0.7 fold and 0.9 fold and 0.8 fold
Fold of Basal RLU [31]: 1.1 fold and 1.4 fold and 1.5 fold
Fold of Basal RLU [32]: 0.9 fold and 1.1 fold
Fold of Basal RLU [33]: 0.7 and 0.8 and 0.6
Fold of Basal RLU [34]: 1 fold and 0.8 fold and 0.6 fold and 0.9 fold
Fold of Basal RLU [35]: 0.7 and 0.8 and 0.6 and 0.9
Fold of Basal RLU [36]: 1.5 and 1.4 and 1.3
Fold of Basal RLU [37]: 1.5 and 0.8 and 0.9 and 1.1

Cc1cc(C(=O)NC(C)(c2ccco2)c2ccco2)nn1-c1cccc(C(F)(F)F)c1 [‘4936]
Fold of Basal RLU [1]: 0.7 fold and 0.8 fold
Fold of Basal RLU [2]: 1.6 fold and 1.4 fold and 1.1 fold
Fold of Basal RLU [3]: 1 fold and 0.8 fold and 0.9 fold
Fold of Basal RLU [4]: 1.1 fold and 1.4 fold and 1.2 fold
Fold of Basal RLU [5]: 0.8 fold and 0.7 fold
Fold of Basal RLU [6]: 0.5 fold and 0.8 fold
Fold of Basal RLU [7]: 0.6 and 1.1 and 0.7
Fold of Basal RLU [8]: 1 fold and 0.9 fold and 1.4 fold
Fold of Basal RLU [9]: 1.5 and 1.4 and 1.6 and 2.3
Fold of Basal RLU [10]: 1.9 and 1.3 and 1.5 and 1.4
Fold of Basal RLU [11]: 0.9 fold and 1 fold and 0.8 fold
Fold of Basal RLU [12]: 0.9 and 0.7 and 0.5
Fold of Basal RLU [13]: 0.7 fold and 1.1 fold and 0.6 fold
Fold of Basal RLU [14]: 0.8 fold and 0.7 fold and 0.9 fold
Fold of Basal RLU [15]: 0.7 fold and 1.1 fold
Fold of Basal RLU [16]: 1.4 and 1.2 and 1
Fold of Basal RLU [17]: 1.1 and 1 and 1.7 and 1.3
Fold of Basal RLU [18]: 1.4 fold and 1.3 fold and 1.1 fold
Fold of Basal RLU [19]: 0.9 fold and 1.1 fold and 1.2 fold and 1 fold
Fold of Basal RLU [20]: 0.8 fold and 0.9 fold and 0.7 fold and 0.6 fold
Fold of Basal RLU [21]: 0.9 and 1
Fold of Basal RLU [22]: 1.1 fold and 1.7 fold and 1.4 fold
Fold of Basal RLU [23]: 0.9 and 1.3 and 1.1
Fold of Basal RLU [24]: 0.9 fold and 1.1 fold and 1.2 fold and 1.5 fold
Fold of Basal RLU [25]: 1.1 fold and 1.3 fold and 0.9 fold and 1.2 fold
Fold of Basal RLU [26]: 1.7 and 1.2 and 1.4 and 1.8
Fold of Basal RLU [27]: 0.8 and 0.6 and 0.9
Fold of Basal RLU [28]: 0.9 fold and 1.3 fold and 1.6 fold
Fold of Basal RLU [29]: 1.1 fold and 1 fold
Fold of Basal RLU [30]: 1.3 fold and 1 fold and 1.2 fold and 0.8 fold
Fold of Basal RLU [31]: 2.3 fold and 1.8 fold and 1.6 fold and 1.5 fold
Fold of Basal RLU [32]: 1 fold and 0.7 fold and 0.9 fold and 1.1 fold
Fold of Basal RLU [33]: 0.7 and 1
Fold of Basal RLU [34]: 0.9 fold and 0.8 fold
Fold of Basal RLU [35]: 0.7 and 0.6 and 0.9
Fold of Basal RLU [36]: 1.5 and 1.4 and 1.6
Fold of Basal RLU [37]: 0.6 and 0.4 and 0.5
